Reference: paper PMC6647725 (Analytical and Bioanalytical Chemistry, 2019)
pIC50: −log10 of the molar value.

How the values were obtained:
[1] = Stability in mouse small intestine homogenate and its final extract; assay type: in vitro ADME; details: nominal 50 ng/mL
Description: (§1) After weighing the complete organ, a volume of 3 mL of this solution was added to the liver and small intestine, 2 mL to the kidneys, and 1 mL to the brain and spleen. The tissue/BSA ratio (w/v) of the homogenates were approximately 0.4:1 for the brain and liver, 0.1:1 for the spleen, 0.2:1 for the kidneys, and 0.25:1 for the small intestine. All samples were shaken in the Fast Prep at 6.0 m/s during 60 s. The stability of each analyte was investigated in all the previously mentioned matrices. For plasma (both human and mouse), the stability was determined in triplicate at two concentration levels, QC L and QC H, whereas for mouse tissue homogenates only at QC M (except the brain in one stability condition). For all matrices, the following stability conditions were assessed: short term at room temperature (RT), long term at − 20 °C, and after 3 freeze-thaw (F/T) cycles at − 20 °C/RT. Furthermore, for tissue homogenates, the short-term stability in ice-water, long-term stability at − 70 °C, and F/T stability at − 70 °C/ice-water were also evaluated. Additionally, the stability in the final extract was tested. For this, the QC L and QC H final extracts from the plasma, brain, and spleen and the QC M final extract from the liver, kidney and small intestine were stored at 4–8 °C up to 3 days. Lastly, the stability of the stock solutions at − 20 °C was investigated.

[2] = Stability in mouse liver homogenate and its final extract; assay type: in vitro ADME; details: nominal 50 ng/mL
Description: as §1

[3] = Stability of stock solutions at − 20 °C; assay type: physicochemical; details: 1 mg/mL stock solution, storage at − 20 °C
Description: as §1, with “The” for “After weighing the complete organ, a volume of 3 mL of this solution was added to the liver and small intestine, 2 mL to the kidneys, and 1 mL to the brain and spleen. The tissue/BSA ratio (w/v) of the homogenates were approximately 0.4:1 for the brain and liver, 0.1:1 for the spleen, 0.2:1 for the kidneys, and 0.25:1 for the small intestine. All samples were shaken in the Fast Prep at 6.0 m/s during 60 s. The”

[4] = Stability in mouse brain homogenate and its final extract; assay type: in vitro ADME
Description: as §1

[5] = Stability in mouse kidney homogenate and its final extract; assay type: in vitro ADME; details: nominal 50 ng/mL
Description: as §1

[6] = Stability in tissue homogenates; assay type: in vitro ADME, mouse; details: all tissue homogenates and conditions of Table 6
Description: as §1, with “The” for “After weighing the complete organ, a volume of 3 mL of this solution was added to the liver and small intestine, 2 mL to the kidneys, and 1 mL to the brain and spleen. The tissue/BSA ratio (w/v) of the homogenates were approximately 0.4:1 for the brain and liver, 0.1:1 for the spleen, 0.2:1 for the kidneys, and 0.25:1 for the small intestine. All samples were shaken in the Fast Prep at 6.0 m/s during 60 s. The”

[7] = Stability in mouse plasma and its final extract (LC-MS/MS); assay type: in vitro ADME
Description: (§2) 50 μL of the sample (either from a preclinical study, calibration standard, or QC) was mixed with 25 μL of IS-working solution, followed by 150 μL of ACN for protein precipitation. Samples were vortex mixed and centrifuged at 23,100g for 10 min at 20 °C. An aliquot of 80 μL of supernatant was diluted with 120 μL of 10 mM ammonium bicarbonate in water:MeOH (1:1 v/v). The final extract was transferred to a glass vial with insert, and 10 μL was injected to the LC-MS/MS system for analysis.
(§3) The stability of each analyte was investigated in all the previously mentioned matrices. For plasma (both human and mouse), the stability was determined in triplicate at two concentration levels, QC L and QC H, whereas for mouse tissue homogenates only at QC M (except the brain in one stability condition). For all matrices, the following stability conditions were assessed: short term at room temperature (RT), long term at − 20 °C, and after 3 freeze-thaw (F/T) cycles at − 20 °C/RT. Furthermore, for tissue homogenates, the short-term stability in ice-water, long-term stability at − 70 °C, and F/T stability at − 70 °C/ice-water were also evaluated. Additionally, the stability in the final extract was tested. […] Lastly, the stability of the stock solutions at − 20 °C was investigated.

[8] = test system: CDK6; details: cited from earlier work
[9] = Stability in human plasma and its final extract (LC-MS/MS); assay type: in vitro ADME
Description: as §2, §3

[10] = final extract (listed under small intestine homogenate), 4–8 °C, 2 d
[11] = small intestine homogenate, 3 F/T (− 70 °C, ice/water bath)
[12] = small intestine homogenate, RT, 3 h
[13] = small intestine homogenate, ice/water bath, 3 h
[14] = liver homogenate, 3 F/T (RT, − 20 °C)
[15] = liver homogenate, 3 F/T (− 70 °C, ice/water bath)
[16] = liver homogenate, LT − 20 °C, 1 m
[17] = liver homogenate, LT − 70 °C, 1 m
[18] = liver homogenate, ice/water bath, 3 h
[19] = brain homogenate, 3 F/T (RT, − 20 °C), nominal 50 ng/mL
[20] = brain homogenate, 3 F/T (− 70 °C, ice/water bath), nominal 50 ng/mL
[21] = brain homogenate, LT − 20 °C, 1 m, nominal 50 ng/mL
[22] = brain homogenate, LT − 70 °C, 1 m, nominal 50 ng/mL
[23] = brain homogenate, RT, 1 d, nominal 5 ng/mL
[24] = brain homogenate, RT, 1 d, nominal 150 ng/mL
[25] = brain homogenate, ice/water bath, 3 h, nominal 50 ng/mL
[26] = final extract (listed under brain homogenate), 4–8 °C, 3 d, nominal 150 ng/mL
[27] = kidney homogenate, 3 F/T (− 70 °C, ice/water bath)
[28] = kidney homogenate, LT − 70 °C, 1 m
[29] = final extract (listed under mouse plasma), 4–8 °C, 4 d, nominal 5 ng/mL
[30] = final extract (listed under mouse plasma), 4–8 °C, 4 d, nominal 150 ng/mL
[31] = mouse plasma, 3 F/T (− 20 °C/RT), nominal 5 ng/mL
[32] = mouse plasma, 3 F/T (− 20 °C/RT), nominal 150 ng/mL
[33] = mouse plasma, RT, 3 d, nominal 150 ng/mL
[34] = mouse plasma, − 20 °C, 3 m, nominal 5 ng/mL
[35] = mouse plasma, − 20 °C, 3 m, nominal 150 ng/mL
[36] = final extract (listed under human plasma), 4–8 °C, 4 d, nominal 5 ng/mL
[37] = final extract (listed under human plasma), 4–8 °C, 4 d, nominal 150 ng/mL
[38] = human plasma, RT, 3 d, nominal 150 ng/mL

Structure (SMILES): CCN1CCN(Cc2ccc(Nc3ncc(F)c(-c4cc(F)c5nc(C)n(C(C)C)c5c4)n3)nc2)CC1 [Abemaciclib]
- Accuracy (% Bias) [1, 10]: 4.7%
- Mean concentration ([1]; small intestine homogenate, 3 F/T (RT, − 20 °C)): 49.0 ng/mL
- Accuracy (% Bias) [1, 11]: 1.5%
- Mean concentration [1, 11]: 50.7 ng/mL
- Mean concentration ([1]; small intestine homogenate, LT − 20 °C, 1 m): 48.2 ng/mL
- Mean concentration ([1]; small intestine homogenate, LT − 70 °C, 1 m): 48.3 ng/mL
- Accuracy (% Bias) [1, 12]: 12.3%
- Mean concentration [1, 12]: 56.4 ng/mL
- Mean concentration ([1]; small intestine homogenate, RT, 1 d): 46.4 ng/mL
- Accuracy (% Bias) [1, 13]: 3.1%
- Mean concentration [1, 13]: 51.6 ng/mL
- Accuracy (% Bias) [2, 14]: 5.0%
- Mean concentration [2, 14]: 52.5 ng/mL
- Accuracy (% Bias) [2, 15]: 0.1%
- Mean concentration [2, 15]: 50.0 ng/mL
- Accuracy (% Bias) [2, 16]: 1.4%
- Mean concentration [2, 16]: 50.7 ng/mL
- Accuracy (% Bias) [2, 17]: 1.2%
- Mean concentration ([2]; liver homogenate, RT, 1 d): 47.9 ng/mL
- Accuracy (% Bias) [2, 18]: 3.8%
- Mean concentration [2, 18]: 51.9 ng/mL
- stability of stock solutions (time stable) [3]: at least 12 months
- Accuracy (% Bias) [4, 19]: 6.9%
- Mean concentration [4, 19]: 53.4 ng/mL
- Accuracy (% Bias) [4, 20]: 2.2%
- Mean concentration [4, 20]: 51.1 ng/mL
- Accuracy (% Bias) [4, 21]: 3.9%
- Mean concentration [4, 21]: 52.0 ng/mL
- Accuracy (% Bias) [4, 22]: 4.3%
- Mean concentration [4, 22]: 52.1 ng/mL
- Accuracy (% Bias) [4, 23]: 6.2%
- Mean concentration [4, 23]: 5.3 ng/mL
- Accuracy (% Bias) [4, 24]: 11.3%
- Mean concentration [4, 24]: 167 ng/mL
- Accuracy (% Bias) [4, 25]: 10.4%
- Mean concentration [4, 25]: 55.2 ng/mL
- Accuracy (% Bias) [4, 26]: 8.7%
- Mean concentration ([5]; kidney homogenate, 3 F/T (RT, − 20 °C)): 49.5 ng/mL
- Accuracy (% Bias) [5, 27]: 3.6%
- Mean concentration [5, 27]: 51.8 ng/mL
- Mean concentration ([5]; kidney homogenate, LT − 20 °C, 1 m): 49.0 ng/mL
- Accuracy (% Bias) [5, 28]: 5.5%
- Mean concentration [5, 28]: 52.7 ng/mL
- Accuracy (% Bias) ([5]; kidney homogenate, RT, 3 h): 1.7%
- Mean concentration ([5]; kidney homogenate, RT, 3 h): 50.9 ng/mL
- Mean concentration ([5]; kidney homogenate, RT, 1 d): 43.3 ng/mL
- Mean concentration ([5]; kidney homogenate, ice/water bath, 3 h): 49.3 ng/mL
- stability in tissue homogenates (in words) [6]: stable in all matrices at all conditions
- Accuracy (% Bias) [7, 29]: 8.1%
- Accuracy (% Bias) [7, 30]: 5.1%
- Accuracy (% Bias) [7, 31]: 4.3%
- Accuracy (% Bias) [7, 32]: 7.6%
- Accuracy (% Bias) [7, 33]: 6.2%
- Accuracy (% Bias) [7, 34]: 1.0%
- Accuracy (% Bias) [7, 35]: 21.8%
- Accuracy (% Bias) [9, 36]: 4.5%
- Accuracy (% Bias) [9, 37]: 7.1%
- Accuracy (% Bias) [9, 38]: 6.2%
